Experimental data from ChEMBL document CHEMBL1154505, “Nakijiquinones E and F, new dimeric sesquiterpenoid quinones from marine sponge” (Bioorg Med Chem, 2009).

Assays:
Format in all cases: functional, cell-based
KB = test: Cytotoxicity against human KB cells
P388 = test: Cytotoxicity against mouse P388 cells
L1210 = test: Cytotoxicity against mouse L1210 cells

Measured: IC50

C=C1CCC[C@H]2[C@](C)(Cc3cc(C(=O)OC)c(O)c(NC4=CC(=O)C(O)=C(C[C@]5(C)[C@@H](C)CC[C@]6(C)C(C)=CCC[C@@H]56)C4=O)c3O)[C@@H](C)CC[C@]12C [NAKIJIQUINONE E]
> 10 µg/mL: all assays above

COC(=O)c1cc(C[C@]2(C)[C@@H](C)CC[C@]3(C)C(C)=CCC[C@@H]23)c(O)c(NC2=CC(=O)C(O)=C(C[C@]3(C)[C@@H](C)CC[C@]4(C)C(C)=CCC[C@@H]34)C2=O)c1O [NAKIJIQUINONE F]
> 10 µg/mL: all assays above
